This passage reports activity coefficient results from the NIST ThermoML archive (doi:10.1016/j.fluid.2014.11.020).

± gives the expanded uncertainty stated by the source.

The data set in a line: activity coefficient (dimensionless); of the first substance listed, at infinite dilution; xn = mol fraction of the nth substance listed. As to conditions: Liquid, Chromatography, x1 = 0.

`CCCCCCCCCCCCCC` [tetradecane] + CCCOC[n+]1ccn(C)c1.F[B-](F)(F)F: the activity coefficient is, setting by setting: (323.15 K) 2700 ± 190; (333.15 K) 2500 ± 170; (343.15 K) 2300 ± 160.

Take `Cc1cccc(C)c1` [1,3-dimethylbenzene] + CCCCCCCCn1cc[n+](COCCC)c1C.O=S(=O)([N-]S(=O)(=O)C(F)(F)F)C(F)(F)F: the activity coefficient runs as follows: (323.15 K) 1.02 ± 0.06; (333.15 K) 1 ± 0.06; (343.15 K) 1.01 ± 0.06.

In the case of `CCCCCC` [hexane] + Cn1cc[n+](COCCCOC[n+]2ccn(C)c2)c1.O=S(=O)([N-]S(=O)(=O)C(F)(F)F)C(F)(F)F.O=S(=O)([N-]S(=O)(=O)C(F)(F)F)C(F)(F)F, the activity coefficient (323.15 K) is 18.2 ± 1.2 and the activity coefficient (333.15 K) was determined as 31 ± 2.1.

Regarding `CCO` [ethanol] + N#C[N-]C#N.N#C[N-]C#N.c1ccc(Cn2cc[n+](COCCCOC[n+]3ccn(Cc4ccccc4)c3)c2)cc1, the activity coefficient is 0.94 ± 0.06 (323.15 K), 0.89 ± 0.06 (333.15 K) and 0.86 ± 0.06 (343.15 K).

As to `CCC[N+](=O)[O-]` [1-nitropropane] + CCCCCCCCn1cc[n+](COCCCOC[n+]2ccn(CCCCCCCC)c2C)c1C.N#C[N-]C#N.N#C[N-]C#N, the activity coefficient runs as follows: (323.15 K) 0.59 ± 0.04; (333.15 K) 0.58 ± 0.04; (343.15 K) 0.58 ± 0.04.

As to `CCCCCCCCCCC` [undecane] + Cn1cc[n+](COCCCOC[n+]2ccn(C)c2)c1.O=S(=O)([N-]S(=O)(=O)C(F)(F)F)C(F)(F)F.O=S(=O)([N-]S(=O)(=O)C(F)(F)F)C(F)(F)F, the activity coefficient was determined as 193 ± 13 (323.15 K), 191 ± 13 (333.15 K) and 162 ± 11 (343.15 K).

For the compound `c1ccncc1` [pyridine] + CCCCCCCCn1cc[n+](COCCC)c1C.N#C[N-]C#N, the activity coefficient reads like this: (323.15 K) 0.66 ± 0.05; (333.15 K) 0.59 ± 0.04; (343.15 K) 0.54 ± 0.04.

For the compound `CCCCCCCCCC` [decane] + Cn1cc[n+](COCCCOC[n+]2ccn(C)c2)c1.O=S(=O)([N-]S(=O)(=O)C(F)(F)F)C(F)(F)F.O=S(=O)([N-]S(=O)(=O)C(F)(F)F)C(F)(F)F, the activity coefficient reads like this: (323.15 K) 141 ± 9.7; (333.15 K) 132 ± 9; (343.15 K) 109 ± 7.5.

For the compound `C1COCCO1` [1,4-dioxane] + CCCOC[n+]1ccn(C)c1.N#C[N-]C#N, the activity coefficient turned out to be 1.06 ± 0.07 (323.15 K), 1.09 ± 0.07 (333.15 K) and 1.12 ± 0.07 (343.15 K).

On to `CC(C)CO` [2-methyl-1-propanol] + CCCCCCCCn1cc[n+](COCCCOC[n+]2ccn(CCCCCCCC)c2C)c1C.N#C[N-]C#N.N#C[N-]C#N, for which the activity coefficient by setting is: (323.15 K) 0.36 ± 0.03; (333.15 K) 0.36 ± 0.03; (343.15 K) 0.35 ± 0.03.

For `CCc1ccccc1` [ethylbenzene] + CCCOC[n+]1ccn(C)c1.N#C[N-]C#N, the activity coefficient by setting is: (323.15 K) 6 ± 0.41; (333.15 K) 6.06 ± 0.41; (343.15 K) 6.12 ± 0.42.

As for `CCC[N+](=O)[O-]` [1-nitropropane] + CCCCCCCCn1cc[n+](COCCC)c1C.N#C[N-]C#N, the activity coefficient (323.15 K) is 0.76 ± 0.05, the activity coefficient (333.15 K) was 0.75 ± 0.05 and the activity coefficient (343.15 K) amounted to 0.75 ± 0.05.

For the compound `C1CCCCCC1` [cycloheptane] + CCCOC[n+]1ccn(C)c1.F[B-](F)(F)F, the activity coefficient reads like this: (323.15 K) 153 ± 11; (333.15 K) 240 ± 16; (343.15 K) 245 ± 17.

For `CCCC(C)=O` [pentan-2-one] + N#C[N-]C#N.N#C[N-]C#N.c1ccc(Cn2cc[n+](COCCCOC[n+]3ccn(Cc4ccccc4)c3)c2)cc1, the activity coefficient (323.15 K) stood at 3.1 ± 0.21, the activity coefficient (333.15 K) is 3.05 ± 0.21 and the activity coefficient (343.15 K) is 3.08 ± 0.21.

Take `ClC(Cl)(Cl)Cl` [tetrachloromethane] + Cn1cc[n+](COCCCOC[n+]2ccn(C)c2)c1.N#C[N-]C#N.N#C[N-]C#N: the activity coefficient runs as follows: (323.15 K) 6.68 ± 0.46; (333.15 K) 6.94 ± 0.47; (343.15 K) 7 ± 0.48.
